The nature of data set [1]: Tissue distribution following oral administration: blood metabolite nucleoside and liver nucleoside triphosphate levels. More on the design: species or system rats. As to conditions: rat, in vivo, 5 mg/kg; for Blood Nuc level at 1 hour / Liver NTP level at 1 hour / Blood Nuc level at 5 hours / Liver NTP level at 5 hours: po. The method, then:
IV Remdesivir (2 mg/kg), oral Remdesevir (5 mg/kg) and oral test compound (5 mg/kg) were administered to rats. Oral administration was to fasted rats by oral gavage. Plasma concentrations of the metabolite nucleoside in circulation were determined by HPLC-UV, and the liver concentrations of the active triphosphate were measured by LC-MS using standard chromatography methods.
FIG. 4 is a graph showing the ratio of (concentration of corresponding nucleoside in the liver)/(concentration of corresponding nucleoside in the blood) after 1 and 5 hours from the second study.
Table 1 contains the blood and liver levels after 1 and 5 hours for a number of test compounds compared to oral Remdesivir.

Data set [2] is described as follows: Tissue distribution following inhalation administration: blood and lung metabolite nucleoside and lung triphosphate levels. Format: in vivo, rats. The method, then:
Remdesivir or the indicated test compound was administered at 2 mg/kg to rats by an inhalation route. The lung concentrations of the metabolite nucleoside and its triphosphate were measured by LC-MS using standard chromatography methods.

Molecules are shown by their SMILES.

For `CCOC(=O)c1ccccc1COP1(=O)OC[C@H]2O[C@@](C#N)(c3ccc4c(N)ncnn34)[C@H](OC(C)=O)[C@@H]2O1` (stereo partly drawn) [Compound 105, Ethyl 2-((((4aR,6R,7R,7aR)-7-acetoxy-6-(4-aminopyrrolo[2,1-f][1,2,4]triazin-7-yl)-6-cyano-2-oxidotetrahydro-4H-furo[3,2-d][1,3,2]dioxaphosphinin-2-yl)oxy)methyl)benzoate], in data set [1], the “Liver exposure of nucleoside triphosphate relative to IV or oral Remdesivir” value is “significantly greater liver exposure than either IV or oral Remdesivir”, the “Blood Nuc level at 1 hour” value was not below 2x*, the “Liver NTP level at 1 hour” value was not below 2x and the “Blood Nuc level at 5 hours” value is given as not below 2x. In data set [1], the “Liver NTP level at 5 hours” value was not below 2x. In data set [2] (rat, in vivo, 2 mg/kg), the “Lung levels of the metabolite nucleoside, exposure relative to Remdesivir” value is on record as “more than 4 times” and the “Nucleoside triphosphate levels in the lung” value is “significant lung exposure of the triphosphate”.
As for `CCOC(=O)c1ccccc1COP1(=O)OC[C@H]2O[C@@](C#N)(c3ccc4c(N)ncnn34)[C@H](OC(=O)CC)[C@@H]2O1` (stereo partly drawn) [Compound 106, Ethyl 2-((((4aR,6R,7R,7aR)-6-(4-aminopyrrolo[2,1-f][1,2,4]triazin-7-yl)-6-cyano-2-oxido-7-(propionyloxy)tetrahydro-4H-furo[3,2-d][1,3,2]dioxaphosphinin-2-yl)oxy)methyl)benzoate], in data set [1], the “Blood Nuc level at 1 hour” value was not below 2x, the “Liver NTP level at 1 hour” value is given as not below 2x, the “Blood Nuc level at 5 hours” value was not below 2x and the “Liver NTP level at 5 hours” value was not below 2x.
As to `CCC(CC)COC(=O)[C@H](C)N[P@](=O)(OC[C@H]1O[C@@](C#N)(c2ccc3c(N)ncnn23)[C@H](O)[C@@H]1O)Oc1ccccc1` [Remdesivir, reference compound], the “Nucleoside triphosphate levels in the lung” value in data set [2] (rats, 2 mg/kg inhalation route, FIG. 7) was “below the level of quantitation”.
On to `CCOC(=O)c1ccccc1COP1(=O)OC[C@H]2O[C@@](C#N)(c3ccc4c(N)ncnn34)[C@H](O)[C@@H]2O1` (stereo partly drawn) [Compound 101, Ethyl 2-((((4aR,6R,7R,7aS)-6-(4-aminopyrrolo[2,1-f][1,2,4]triazin-7-yl)-6-cyano-7-hydroxy-2-oxidotetrahydro-4H-furo[3,2-d][1,3,2]dioxaphosphinin-2-yl)oxy)methyl)benzoate], for which, in data set [1], the “Blood Nuc level at 1 hour” value is on record as less than 1x, the “Liver NTP level at 1 hour” value is not below 2x, the “Blood Nuc level at 5 hours” value is recorded as less than 1x and the “Liver NTP level at 5 hours” value was not below 2x.

(Values after patent US11566041B2, “Nucleotide prodrug compounds” (Ligand Pharmaceuticals Incorporated, priority 2020, dated 2023).)
